Measurements from publication PMC3495945, “Org 214007-0: A Novel Non-Steroidal Selective Glucocorticoid Receptor Modulator with Full Anti-Inflammatory Properties and Improved Therapeutic Index” (PLoS ONE, 2012).

What was measured:
LPS-induced TNFα release = assay: LPS-induced TNFα acute inflammation mouse model; assay type: in vivo; settings: RU486 50 mg/kg s.c. 30 minutes before oral compound dosing
Protocol: For both the LPS-induced TNFα as well as the anti-CD3 induced IL-2 model, female Balb/c mice of 8–12 week old were used. Mice were treated orally with 0.2 ml compound or vehicle (water/mannitol (5%) with 5% DMSO/5% chremophore for the LPS model or with 0.5% gelatine for the anti-CD3 model). One hour after oral treatment animals were challenged i.p. with 0.2 ml of either 20 μg/mouse LPS (Sigma, E. coli serotype 055:B5) or 5 µg/mouse hamster anti-CD3 monoclonal (BD Biosciences Pharmingen, art. nr. 553057, clone 145-2C11). Ninety minutes after LPS injection or 3 hours after anti-CD3 challenge, blood samples were collected and serum levels of TNFα or IL-2 were determined via specific ELISAs (BD Biosciences Pharmingen, San Diego, CA, USA). In the experiment that included treatment with RU486 to block GR, mice were dosed subcutaneously with 50 mg/kg RU486 30 minutes before the oral compound dosing. ED50 and % efficacy (maximal percentage inhibition of TNFα or IL-2 release) are determined using a 3 parameter sigmoidal curve calculation. Statistical analysis of the results was performed using an one-way ANOVA (log) test.

[1] = test system: endometrium in estrogen-primed immature rabbits; assay: anti-McPhail test (antagonistic, anti-progestational activity); assay type: in vivo, rabbit; settings: 0-4 scale; 7 days with progesterone; RU486 4 mg/kg/day, Org 214007-0 0.5 mg/kg/day oral; n=2
Protocol: For the anti-McPhail test, the estrogen-primed rabbits were subsequently treated for 7 days with inducer progesterone (0.25 mg/kg/day s.c.) in combination with an oral treatment of either placebo, reference RU486 (4 mg/kg/day) or Org 214007-0 (0.5 mg/kg/day). The uterus preparation and evaluation of the endometrium was performed as described above.
For the antagonistic test, after oestrogen priming, rabbits were treated for 7 days with progesterone and placebo, reference RU486 or Org 214007-0. One day after the last treatment the uterus was dissected and endometrial development was scored on a 0-4 scale. […] After treatment with Org 214007-0 no reduction of the endometrial transformation was observed (score 3.31), indicative for no anti-progestagenic activity

[2] = biological target: His-GR-LBD (F602S mutated); assay: AlphaScreen or HTRF; co-factor peptide recruitment assay (Eu/APC fluorescence); 10 nM His-GR-LBD (F602S) pre-incubated 3 h at 4°C with Org 214007-0 (0.032 nM to 10 μM), then 100 nM TIF2-3 peptide, 8 nM streptavidin-APC and 1.25 nM anti-His-Eu, 20 h at 4°C
[3] = test system: endometrium in estrogen-primed immature rabbits; assay: McPhail test (agonistic, progestational activity); assay type: in vivo, rabbit; settings: 0-4 scale; 5 days; MPA 0.05 mg/kg/day, Org 214007-0 0.5 mg/kg/day; n=2
Protocol: The McPhail (or anti-McPhail) test was used to evaluate potential progestational (or anti-progestational) activity of Org 214007-0 on the endometrium in estrogen-primed immature rabbits after once-daily administration. The female NZW rabbits were housed in pairs in a light- and temperature-controlled room, fed daily with 40 - 50 g standard pelleted food and with free access to tap-water. Before treatment with compounds rabbits were primed daily in the morning with a subcutaneous dose of 2 μg estradiol benzoate for 8 days. […] Transverse sections were prepared, stained with haematoxylin-eosin and evaluated microscopically. Endometrial development was scored on a 0-4 scale as follows: score 0: no development of glands; score 1: start of development of glands; score 2: clear-cut development of glands with ducts beginning to branch; score 3: about 2/3 of stroma bearing glandual tissue; score 4: more than 2/3 of stroma bearing glandular tissue. A score of 2 or higher in both rabbits was evaluated as a positive resonse.
For both the agonistic and antagonistic test immature female NZW rabbits (n=2 per treatment group) were primed with estrogen. […] One day after the last treatment the uterus was dissected and endometrial development was scored on a 0-4 scale. […]

## CC#C[C@]1(O)CC[C@H]2[C@@H]3CCC4=CC(=O)CCC4=C3[C@@H](c3ccc(N(C)C)cc3)C[C@@]21C [RU486, mifepristone, reference compound]
LPS-induced TNFα release
  effect of RU486 on inhibition of TNFα by Org 214007-0 or prednisolone: fully antagonized
[1]
  endometrial development score, antagonistic test: 0.5

## peptide representing Transcriptional Intermediary Factor 2 - LXXLL motif 3 (TIF2-3)
[2]
  percentage maximal efficacy of peptide recruitment with Org 214007-0, relative to prednisolone (100%): 67%

## CC(=O)O[C@]1(C(C)=O)CC[C@H]2[C@@H]3C[C@H](C)C4=CC(=O)CC[C@]4(C)[C@H]3CC[C@@]21C [MPA, medroxyprogesterone acetate, reference compound]
[3]
  endometrial development score, agonistic test: 2.5
